Measured values: ChEMBL document CHEMBL5724914, “Linking interpersonal differences in gut microbiota composition and drug biotransformation activity” (2024)

Assay: (§1) The drug is tested on WLS-038 corresponding to human gut metagenome with ENA study accession number: PRJEB37062 and ENA sample accession number: ERS12561745 for biotransformation under anaerobic condition. The drug concentrations were measured over 9 timepoints collected between 0 and 24 hours of incubation by liquid-chromatography-coupled mass spectrometry (LC–MS)
Conditions: 2 µM
Further: call rule not given here.

| Bacterial Biotransformation | SMILES |
| --- | --- |
| Compound NOT metabolized | CCN(CC)CCNC(=O)c1ccc(NC(C)=O)cc1 [ACECAINIDE] |
| Compound metabolized | O=C1CN2Cc3c(ccc(Cl)c3Cl)N=C2N1 [ANAGRELIDE] |

Assay: as §1, with “Z-029” for “WLS-038”, “rat” for “human”, “ERS12561828” for “ERS12561745”
Conditions: 2 µM

| Bacterial Biotransformation | SMILES |
| --- | --- |
| Compound NOT metabolized | CCN(CC)CCNC(=O)c1ccc(NC(C)=O)cc1 [ACECAINIDE] |
| Compound NOT metabolized | O=C1CN2Cc3c(ccc(Cl)c3Cl)N=C2N1 [ANAGRELIDE] |

Assay: as §1, with “Z-024” for “WLS-038”, “pig” for “human”, “ERS12561823” for “ERS12561745”
Conditions: 2 µM

| Bacterial Biotransformation | SMILES |
| --- | --- |
| Compound NOT metabolized | CCN(CC)CCNC(=O)c1ccc(NC(C)=O)cc1 [ACECAINIDE] |
| Compound metabolized | O=C1CN2Cc3c(ccc(Cl)c3Cl)N=C2N1 [ANAGRELIDE] |

Conditions: human gut metagenome, 24 h, 2 µM

| Bacterial Biotransformation | SMILES |
| --- | --- |
| Compound NOT metabolized | CCN(CC)CCNC(=O)c1ccc(NC(C)=O)cc1 [ACECAINIDE] |
| Compound NOT metabolized | O=C1CN2Cc3c(ccc(Cl)c3Cl)N=C2N1 [ANAGRELIDE] |

Assay: as §1, with “Z-027” for “WLS-038”, “to” for “to human gut”, “ERS12561826” for “ERS12561745”
Conditions: 2 µM

| Bacterial Biotransformation | SMILES |
| --- | --- |
| Compound NOT metabolized | CCN(CC)CCNC(=O)c1ccc(NC(C)=O)cc1 [ACECAINIDE] |
| Compound NOT metabolized | O=C1CN2Cc3c(ccc(Cl)c3Cl)N=C2N1 [ANAGRELIDE] |

Conditions: human gut metagenome, 24 h, 2 µM
Remark: another data set of the same source

| Bacterial Biotransformation | SMILES |
| --- | --- |
| Compound metabolized | CCN(CC)CCNC(=O)c1ccc(NC(C)=O)cc1 [ACECAINIDE] |
| Compound metabolized | O=C1CN2Cc3c(ccc(Cl)c3Cl)N=C2N1 [ANAGRELIDE] |

Conditions: human gut metagenome, 24 h, 2 µM
Remark: another data set of the same source

| Bacterial Biotransformation | SMILES |
| --- | --- |
| Compound NOT metabolized | CCN(CC)CCNC(=O)c1ccc(NC(C)=O)cc1 [ACECAINIDE] |
| Compound NOT metabolized | O=C1CN2Cc3c(ccc(Cl)c3Cl)N=C2N1 [ANAGRELIDE] |

Assay: as §1, with “Z-002” for “WLS-038”, “rabbit” for “human”, “ERS12561802” for “ERS12561745”
Conditions: 2 µM

| Bacterial Biotransformation | SMILES |
| --- | --- |
| Compound metabolized | CCN(CC)CCNC(=O)c1ccc(NC(C)=O)cc1 [ACECAINIDE] |
| Compound NOT metabolized | O=C1CN2Cc3c(ccc(Cl)c3Cl)N=C2N1 [ANAGRELIDE] |

Conditions: human gut metagenome, 24 h, 2 µM
Remark: another data set of the same source

| Bacterial Biotransformation | SMILES |
| --- | --- |
| Compound NOT metabolized | CCN(CC)CCNC(=O)c1ccc(NC(C)=O)cc1 [ACECAINIDE] |
| Compound NOT metabolized | O=C1CN2Cc3c(ccc(Cl)c3Cl)N=C2N1 [ANAGRELIDE] |

Conditions: human gut metagenome, 24 h, 2 µM
Remark: another data set of the same source

| Bacterial Biotransformation | SMILES |
| --- | --- |
| Compound NOT metabolized | CCN(CC)CCNC(=O)c1ccc(NC(C)=O)cc1 [ACECAINIDE] |
| Compound NOT metabolized | O=C1CN2Cc3c(ccc(Cl)c3Cl)N=C2N1 [ANAGRELIDE] |

Conditions: human gut metagenome, 24 h, 2 µM
Remark: another data set of the same source

| Bacterial Biotransformation | SMILES |
| --- | --- |
| Compound NOT metabolized | CCN(CC)CCNC(=O)c1ccc(NC(C)=O)cc1 [ACECAINIDE] |
| Compound NOT metabolized | O=C1CN2Cc3c(ccc(Cl)c3Cl)N=C2N1 [ANAGRELIDE] |

Conditions: human gut metagenome, 24 h, 2 µM
Remark: another data set of the same source

| Bacterial Biotransformation | SMILES |
| --- | --- |
| Compound NOT metabolized | CCN(CC)CCNC(=O)c1ccc(NC(C)=O)cc1 [ACECAINIDE] |
| Compound NOT metabolized | O=C1CN2Cc3c(ccc(Cl)c3Cl)N=C2N1 [ANAGRELIDE] |

Assay: as §1, with “WLS-069” for “WLS-038”, “ERS12561748” for “ERS12561745”
Conditions: 2 µM

| Bacterial Biotransformation | SMILES |
| --- | --- |
| Compound NOT metabolized | CCN(CC)CCNC(=O)c1ccc(NC(C)=O)cc1 [ACECAINIDE] |
| Compound metabolized | O=C1CN2Cc3c(ccc(Cl)c3Cl)N=C2N1 [ANAGRELIDE] |

Assay: as §1, with “Z-012” for “WLS-038”, “to” for “to human gut”, “ERS12561812” for “ERS12561745”
Conditions: 2 µM

| Bacterial Biotransformation | SMILES |
| --- | --- |
| Compound NOT metabolized | CCN(CC)CCNC(=O)c1ccc(NC(C)=O)cc1 [ACECAINIDE] |
| Compound NOT metabolized | O=C1CN2Cc3c(ccc(Cl)c3Cl)N=C2N1 [ANAGRELIDE] |

Conditions: human gut metagenome, 24 h, 2 µM
Remark: another data set of the same source

| Bacterial Biotransformation | SMILES |
| --- | --- |
| Compound NOT metabolized | CCN(CC)CCNC(=O)c1ccc(NC(C)=O)cc1 [ACECAINIDE] |
| Compound metabolized | O=C1CN2Cc3c(ccc(Cl)c3Cl)N=C2N1 [ANAGRELIDE] |

Assay: as §1, with “Z-016” for “WLS-038”, “mouse” for “human”, “ERS12561815” for “ERS12561745”
Conditions: 2 µM

| Bacterial Biotransformation | SMILES |
| --- | --- |
| Compound NOT metabolized | CCN(CC)CCNC(=O)c1ccc(NC(C)=O)cc1 [ACECAINIDE] |
| Compound NOT metabolized | O=C1CN2Cc3c(ccc(Cl)c3Cl)N=C2N1 [ANAGRELIDE] |

Assay: as §1, with “Z-011” for “WLS-038”, “mouse” for “human”, “ERS12561811” for “ERS12561745”
Conditions: 2 µM

| Bacterial Biotransformation | SMILES |
| --- | --- |
| Compound NOT metabolized | CCN(CC)CCNC(=O)c1ccc(NC(C)=O)cc1 [ACECAINIDE] |
| Compound NOT metabolized | O=C1CN2Cc3c(ccc(Cl)c3Cl)N=C2N1 [ANAGRELIDE] |

Assay: as §1, with “WLS-098” for “WLS-038”, “ERS12561754” for “ERS12561745”
Conditions: 2 µM

| Bacterial Biotransformation | SMILES |
| --- | --- |
| Compound metabolized | CCN(CC)CCNC(=O)c1ccc(NC(C)=O)cc1 [ACECAINIDE] |
| Compound metabolized | O=C1CN2Cc3c(ccc(Cl)c3Cl)N=C2N1 [ANAGRELIDE] |

Assay: as §1, with “WLS-240” for “WLS-038”, “ERS12561773” for “ERS12561745”
Conditions: 2 µM

| Bacterial Biotransformation | SMILES |
| --- | --- |
| Compound metabolized | CCN(CC)CCNC(=O)c1ccc(NC(C)=O)cc1 [ACECAINIDE] |
| Compound metabolized | O=C1CN2Cc3c(ccc(Cl)c3Cl)N=C2N1 [ANAGRELIDE] |

Conditions: human gut metagenome, 24 h, 2 µM
Remark: another data set of the same source

| Bacterial Biotransformation | SMILES |
| --- | --- |
| Compound metabolized | CCN(CC)CCNC(=O)c1ccc(NC(C)=O)cc1 [ACECAINIDE] |
| Compound metabolized | O=C1CN2Cc3c(ccc(Cl)c3Cl)N=C2N1 [ANAGRELIDE] |
